Measured values reported in the NIST ThermoML archive (doi:10.1016/j.jct.2005.10.004).
Where “and” joins values, the source holds several entries; their conditions need not be identical. Identical values can stand only once.

Experiment: xn = mol fraction of the nth substance listed
Conditions: Gas, Buoyancy - hydrostatic balance with magnetic suspension - one sinker

N#N [nitrogen] + C
Conditions	mass density
240 K, 2107.5 kPa, x2 = 0.8998	19.5904 kg/m3 and 19.5908 kg/m3
240 K, 4055.5 kPa, x2 = 0.8998	40.6283 kg/m3
240 K, 8017.2 kPa, x2 = 0.8	96.5565 kg/m3
240 K, 8864.8 kPa, x2 = 0.8	109.578 kg/m3
240 K, 12048 kPa, x2 = 0.8	159.33 kg/m3
240 K, 13511 kPa, x2 = 0.8998	181.648 kg/m3
240.01 K, 1951.7 kPa, x2 = 0.8	19.1493 kg/m3 and 19.149 kg/m3
240.01 K, 3991.5 kPa, x2 = 0.8	41.8987 kg/m3
240.01 K, 3991.7 kPa, x2 = 0.8	41.901 kg/m3
240.01 K, 6011.9 kPa, x2 = 0.8	67.6707 kg/m3
240.01 K, 6012.2 kPa, x2 = 0.8	67.6768 kg/m3
240.01 K, 7076 kPa, x2 = 0.8	82.6152 kg/m3
240.01 K, 8017.6 kPa, x2 = 0.8	96.5609 kg/m3
240.01 K, 8026.3 kPa, x2 = 0.8998	94.9591 kg/m3
240.01 K, 10028 kPa, x2 = 0.8998	127.626 kg/m3
240.01 K, 10029 kPa, x2 = 0.8998	127.633 kg/m3
240.01 K, 10372 kPa, x2 = 0.8	133.317 kg/m3 and 133.315 kg/m3
240.01 K, 12048 kPa, x2 = 0.8	159.332 kg/m3
240.01 K, 12090 kPa, x2 = 0.8998	160.982 kg/m3
240.01 K, 13638 kPa, x2 = 0.8	182.319 kg/m3
240.01 K, 15026 kPa, x2 = 0.8998	200.798 kg/m3
240.02 K, 6035.6 kPa, x2 = 0.8998	65.6527 kg/m3
249.91 K, 2443.9 kPa, x2 = 0.8	23.1504 kg/m3
249.91 K, 2444.1 kPa, x2 = 0.8	23.1522 kg/m3
249.91 K, 2444.9 kPa, x2 = 0.8	23.1598 kg/m3
249.91 K, 5015.8 kPa, x2 = 0.8	51.0598 kg/m3
249.91 K, 5016 kPa, x2 = 0.8	51.0618 kg/m3
249.91 K, 7570.5 kPa, x2 = 0.8	82.6548 kg/m3
249.92 K, 7570.8 kPa, x2 = 0.8	82.6605 kg/m3
249.92 K, 8909.9 kPa, x2 = 0.8	100.551 kg/m3
249.92 K, 8910.5 kPa, x2 = 0.8	100.56 kg/m3
249.92 K, 8911 kPa, x2 = 0.8	100.565 kg/m3
249.93 K, 10917 kPa, x2 = 0.8	128.204 kg/m3
249.93 K, 12900 kPa, x2 = 0.8	155.107 kg/m3
249.93 K, 12901 kPa, x2 = 0.8	155.123 kg/m3
249.93 K, 14257 kPa, x2 = 0.8	172.455 kg/m3
249.93 K, 14258 kPa, x2 = 0.8	172.479 kg/m3
249.93 K, 16938 kPa, x2 = 0.8	202.973 kg/m3
249.93 K, 16952 kPa, x2 = 0.8	203.124 kg/m3
249.94 K, 9596 kPa, x2 = 0.8	109.925 kg/m3
249.94 K, 10910 kPa, x2 = 0.8	128.101 kg/m3
249.99 K, 2003.4 kPa, x2 = 0.8998	17.6409 kg/m3
249.99 K, 2056.7 kPa, x2 = 0.8	19.2703 kg/m3
249.99 K, 3994.1 kPa, x2 = 0.8998	37.4833 kg/m3
249.99 K, 3994.2 kPa, x2 = 0.8998	37.4837 kg/m3
249.99 K, 4008 kPa, x2 = 0.8	39.6397 kg/m3
249.99 K, 6005.8 kPa, x2 = 0.8998	60.2899 kg/m3
249.99 K, 6017.6 kPa, x2 = 0.8	62.9683 kg/m3
249.99 K, 7544.1 kPa, x2 = 0.8	82.2685 kg/m3
249.99 K, 7544.6 kPa, x2 = 0.8	82.2725 kg/m3
249.99 K, 8074.6 kPa, x2 = 0.8998	86.7809 kg/m3
249.99 K, 8074.9 kPa, x2 = 0.8998	86.7846 kg/m3
249.99 K, 8075.1 kPa, x2 = 0.8998	86.7862 kg/m3
249.99 K, 10120 kPa, x2 = 0.8998	115.3 kg/m3
249.99 K, 10121 kPa, x2 = 0.8	117.092 kg/m3
249.99 K, 12763 kPa, x2 = 0.8998	152.294 kg/m3
249.99 K, 13368 kPa, x2 = 0.8	161.09 kg/m3
249.99 K, 13369 kPa, x2 = 0.8	161.093 kg/m3
250 K, 1972.2 kPa, x2 = 0.8998	17.3493 kg/m3
250 K, 2229 kPa, x2 = 0.8998	19.7632 kg/m3
250 K, 12762 kPa, x2 = 0.8998	152.28 kg/m3 and 152.282 kg/m3
250 K, 15168 kPa, x2 = 0.8998	182.264 kg/m3
250 K, 18609 kPa, x2 = 0.8998	216.303 kg/m3
274.8 K, 11276 kPa, x2 = 0.8	109.07 kg/m3
274.81 K, 2552.2 kPa, x2 = 0.8	21.5902 kg/m3
274.81 K, 2552.3 kPa, x2 = 0.8	21.5893 kg/m3
274.81 K, 5055.3 kPa, x2 = 0.8	44.7483 kg/m3
274.81 K, 5055.4 kPa, x2 = 0.8	44.7496 kg/m3
274.81 K, 7550.3 kPa, x2 = 0.8	69.666 kg/m3 and 69.6651 kg/m3
274.81 K, 7562.1 kPa, x2 = 0.8	69.788 kg/m3
274.81 K, 7562.6 kPa, x2 = 0.8	69.7929 kg/m3
274.81 K, 9501.7 kPa, x2 = 0.8	90.1191 kg/m3
274.81 K, 9502.3 kPa, x2 = 0.8	90.1254 kg/m3
274.81 K, 10330 kPa, x2 = 0.8	98.956 kg/m3
274.81 K, 10337 kPa, x2 = 0.8	99.0305 kg/m3
274.81 K, 11275 kPa, x2 = 0.8	109.063 kg/m3
274.81 K, 12889 kPa, x2 = 0.8	126.201 kg/m3
274.81 K, 12890 kPa, x2 = 0.8	126.206 kg/m3
274.81 K, 14325 kPa, x2 = 0.8	141.105 kg/m3
274.81 K, 14327 kPa, x2 = 0.8	141.128 kg/m3
274.81 K, 15731 kPa, x2 = 0.8	155.191 kg/m3
274.81 K, 15733 kPa, x2 = 0.8	155.216 kg/m3
274.81 K, 16797 kPa, x2 = 0.8	165.435 kg/m3
274.81 K, 16816 kPa, x2 = 0.8	165.609 kg/m3
274.82 K, 8425.3 kPa, x2 = 0.8	78.7622 kg/m3
274.82 K, 9439.5 kPa, x2 = 0.8	89.4646 kg/m3
274.82 K, 11275 kPa, x2 = 0.8	109.065 kg/m3
274.82 K, 11277 kPa, x2 = 0.8	109.088 kg/m3
274.82 K, 12811 kPa, x2 = 0.8	125.374 kg/m3
274.99 K, 2012.7 kPa, x2 = 0.8	16.8448 kg/m3
274.99 K, 2211 kPa, x2 = 0.8998	17.4645 kg/m3
274.99 K, 4076.7 kPa, x2 = 0.8	35.4308 kg/m3
274.99 K, 6021.2 kPa, x2 = 0.8	54.1463 kg/m3
274.99 K, 6055.4 kPa, x2 = 0.8998	51.8525 kg/m3
274.99 K, 8019.2 kPa, x2 = 0.8	74.4425 kg/m3
274.99 K, 10017 kPa, x2 = 0.8	95.4954 kg/m3
274.99 K, 11989 kPa, x2 = 0.8	116.514 kg/m3 and 116.518 kg/m3
274.99 K, 14080 kPa, x2 = 0.8	138.416 kg/m3
274.99 K, 15091 kPa, x2 = 0.8998	145.151 kg/m3
274.99 K, 15497 kPa, x2 = 0.8	152.681 kg/m3
274.99 K, 16131 kPa, x2 = 0.8	158.862 kg/m3 and 158.861 kg/m3
274.99 K, 16805 kPa, x2 = 0.8998	161.533 kg/m3 and 161.536 kg/m3
274.99 K, 17724 kPa, x2 = 0.8998	169.816 kg/m3
274.99 K, 17726 kPa, x2 = 0.8998	169.823 kg/m3
275 K, 2005.1 kPa, x2 = 0.8998	15.7688 kg/m3
275 K, 4053.8 kPa, x2 = 0.8998	33.2951 kg/m3
275 K, 6055.4 kPa, x2 = 0.8998	51.8523 kg/m3
275 K, 8023.2 kPa, x2 = 0.8998	71.384 kg/m3
275 K, 10028 kPa, x2 = 0.8998	92.2879 kg/m3
275 K, 11444 kPa, x2 = 0.8998	107.355 kg/m3
275 K, 13322 kPa, x2 = 0.8998	127.156 kg/m3
299.91 K, 2564.5 kPa, x2 = 0.8	19.5987 kg/m3 and 19.5993 kg/m3
299.91 K, 4995 kPa, x2 = 0.8	39.306 kg/m3
